{"source": "patent US5245077A", "about": "“L-buthionine-S-sulfoximine and methods of making” (Cornell Research Foundation Inc., priority 1992, dated 1993)", "key": {"[1]": {"system": "Trypanosoma b. brucei", "conditions": "mice infected with Trypanosoma b. brucei; cited from earlier work"}, "[2]": {"molecular_target": "T1, gamma-glutamylcysteine synthetase (Rattus norvegicus, UniProt P19468)", "T1 sequence (P19468 1-637)": "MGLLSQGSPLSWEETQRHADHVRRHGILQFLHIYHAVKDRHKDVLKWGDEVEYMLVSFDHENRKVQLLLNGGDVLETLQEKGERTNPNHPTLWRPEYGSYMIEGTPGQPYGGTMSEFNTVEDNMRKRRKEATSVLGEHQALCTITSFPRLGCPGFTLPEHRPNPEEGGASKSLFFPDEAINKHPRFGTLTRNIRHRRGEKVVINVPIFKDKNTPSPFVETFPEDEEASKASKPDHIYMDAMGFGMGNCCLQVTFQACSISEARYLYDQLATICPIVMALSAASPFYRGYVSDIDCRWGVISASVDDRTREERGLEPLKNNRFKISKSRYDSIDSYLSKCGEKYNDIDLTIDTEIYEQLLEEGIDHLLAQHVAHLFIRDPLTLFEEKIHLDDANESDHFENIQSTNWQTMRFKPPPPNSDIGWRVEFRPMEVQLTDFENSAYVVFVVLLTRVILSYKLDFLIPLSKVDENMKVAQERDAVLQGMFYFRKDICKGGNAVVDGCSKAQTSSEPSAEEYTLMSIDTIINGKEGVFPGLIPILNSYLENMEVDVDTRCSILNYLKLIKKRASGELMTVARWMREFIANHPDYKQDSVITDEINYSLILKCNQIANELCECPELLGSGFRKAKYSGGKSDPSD", "T1 sequence (P48508 1-274 partner)": "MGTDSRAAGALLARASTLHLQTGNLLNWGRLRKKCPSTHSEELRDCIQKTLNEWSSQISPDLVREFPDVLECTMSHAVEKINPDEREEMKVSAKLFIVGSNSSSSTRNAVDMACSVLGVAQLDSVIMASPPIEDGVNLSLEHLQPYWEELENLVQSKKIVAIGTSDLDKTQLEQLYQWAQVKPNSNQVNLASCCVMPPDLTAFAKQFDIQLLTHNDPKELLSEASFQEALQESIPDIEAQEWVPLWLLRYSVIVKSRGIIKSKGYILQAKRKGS", "test": "Inhibition of gamma-glutamylcysteine synthetase (coupled PK/LDH assay, NADH absorbance at 340 mμ)", "format": "biochemical", "conditions": "for Ki / binding mode: versus glutamate; for Ki: Lineweaver-Burk plot", "experimental": "L-buthionine-S-sulfoximine, L-buthionine-R-sulfoximine and D-buthionine-SR-sulfoximine were assayed for ability to inhibit gamma-glutamylcysteine synthetase.\nThe assay procedure used is similar to that described in Griffith, O. W., J. Biol. Chem. 257, 13704-13712 (1982).\nThe assay is based on the following reactions wherein GS is used to denote gamma-glutamylcysteine synthetase, PK is used to denote pyruvate kinase, LDH is used to denote lactate dehydrogenase, NADH is used to denote reduced beta-nicotinamide adenine dinucleotide, NAD^+ is used to denote oxidized beta-nictoninamide adenine dinucleotide, ATP is used to denote adenosine triphosphate, ADP is used to denote adenosine diphosphate, and Pi is used to denote inorganic phosphate.\nThe assay is based on the fact that the velocity of the reaction to produce gamma-glutamylaminobutyrate is reduced to the extent that GS is inhibited. […] Reactions (2) and (3) are a detection system for ADP wherein ADP, as it is produced, reacts with phosphoenolpyruvate to produce pyruate, which reacts with NADH to produce NAD^+. […] Thus, progress of the GS reaction results in a decrease in the absorbence of the solution at 340 mμ and, if GS is inhibited, the decrease in absorbence at 340 mμ occurs at a slower rate. Such studies are carried out at several concentrations of inhibitor.\nEach test for inhibition was carried out in a cuvette containing in a final volume of 1 ml the following: 150 mM Tris-HCl buffer (pH 8.2), 75 mM KCl, 10 mM ATP, 5 mM phosphoenolpyruvate, 25 mM MgCl2, 1 to 5 mM L-glutamate, 10 mM α-amino-L-butyrate, 0.3 mM NADH, 0.2 mM EDTA, 10 International Units of PK, 10 International Units of LDH and 0.03 International Units of GS. […] Four sets of runs were made with 1 mM glutamate; 4 sets of runs were made with 1.7 mM glutamate; 4 sets of runs was made with 2.5 mM glutamate and 4 sets of runs were made with 5 mM glutamate. At each glutamate concentration, one set of runs were made with no inhibitor. For studies with L-buthionine-R-sulfoximine the other 3 sets of runs contained 0.05, 0.1, 0r 0.2 mM inhibitor. For studies with D-buthionine-SR-sulfoximine, the other 3 sets of runs contained 2, 5 or 10 mM inhibitor.\nFor each test run the temperature was kept at 37° C. and GS was added last to start the reaction. The reaction velocity was followed from the decrease in absorbence at 340 mμ (a decrease of 0.62 in optical density indicates 0.1 μmol of product was formed).\nA Lineweaver-Burk plot was then prepared.\nComplete inhibition was obtained in less than 5 min with either concentration tested."}, "[3]": {"system": "tissue glutathione levels", "test": "Glutathione depletion in mice (tissue glutathione levels)", "format": "in vivo", "conditions": "for glutathione level of kidney: L-SR and D-SR 0.4 mmole/kg, L-S and L-R 0.2 mmole/kg; for depletion of glutathione in liver (in words) / depletion of glutathione in pancreas (in words): L-R 0.2 mmole/kg, D-SR 0.4 mmole/kg", "protocol": "Tissue glutathione levels were determined as described in Griffith, O. W., Anal. Biochem. 106, 207-212, (1980).\nThirty two mice were given physiological saline, 4 mice were given 0.4 mmole/kg of L-buthionine-SR-sulfoximine, 4 mice were given 0.2 mmole/kg of L-buthionine-S-sulfoximine, 4 mice were given 0.2 mmoles/kg of L-buthionine-R-sulfoximine and 4 mice were given 0.4 mmole/kg or D-buthionine-SR-sulfoximine. All injections were given intraperitoneally. Two hours after injection, the mice were killed, and the glutathione levels in the brain, liver, pancreas, and kidney were determined."}, "[4]": {"system": "L-glutamylcysteine uptake", "conditions": "kidney; cited from earlier work"}, "[5]": {"test": "Transport of 35S-labelled isomers into tissues (tissue content)", "format": "in vivo, mice", "conditions": "2 mmole/kg i.p., 2 hours", "experimental": "The transport of L-buthionine-S-sulfoximine and L-buthionine-R-sulfoximine into tissues was examined using preparations of each isomer radiolabeled with ^35 S.\nL-[^35 S]-Buthionine-SR-sulfoximine was prepared from L-[^35 S]methionine as described previously (Griffith, O. W., J. Biol. Chem. 257, 13704-13712 (1982)). The preparation was separated into L-[^35 S]-buthionine-S-sulfoximine and L-[^35 S]-buthionine-R-sulfoximine by chromatography using Cu^++ D-proline buffer as described in Example III.\nTwelve mice were injected intraperitoneally with L-[^35 S]-buthionine-S-sulfoximine and 12 mice were injected intraperitoneally with L-buthionine-R-sulfoximine. For all mice the dose was 2 mmole/kg. After 2 hours the mice were sacrificed, and the radioactivity contained in the various tissues was determined by liquid scintillation counting. From that determination and from the known specific activity of the compounds injected, the tissue content of either L-buthionine-S-sulfoximine or L-buthionine-R-sulfoximine was calculated. The results in μmole/gm tissue were as follows (tissue, content of L-buthionine-S-sulfoximine, content of L-buthionine-R-sulfoximine): brain, 0.11, 0.17; lung, 0.53, 0.55; heart, 0.33, 0.49; liver, 0.11, 0.16; spleen 0.51, 0.59; small intestine, 0.34, 0.39; large intestine, 0.25, 0.20; testes, 0.45, 0.50; skeletal muscle, 0.18, 0.24."}, "[6]": {"molecular_target": "T1, gamma-glutamylcysteine synthetase", "conditions": "cited from earlier work"}, "[7]": {"conditions": "kidney, i.p., 2 hours after injection"}}, "note": "“Also recorded” adds a separate entry of the source. Read-outs that look alike come from different tables or passages of the source.", "data": [{"smiles": "CCCCS(=N)(=O)CCC(N)C(=O)O", "note": "(racemic) [DL-buthionine-SR-sulfoximine]", "values": [{"measurement": "survival of infected mice (in words)", "setting": "[1]", "result": "extended survival and in some cases to be cured"}]}, {"smiles": "CCCCS(=N)(=O)CC[C@@H](N)C(=O)O", "note": "(stereo partly drawn) [D-buthionine-SR-sulfoximine, reference compound]", "values": [{"measurement": "inhibition of gamma-glutamylcysteine synthetase (in words)", "setting": "[2]", "result": "weak and reversible inhibitors"}, {"measurement": "reversibility of inhibition", "setting": "[2]", "result": "reversible inhibitor"}, {"measurement": "Ki", "setting": "[2]; 37° C., pH 8.2", "result": 5200, "unit": "µM"}, {"measurement": "binding mode", "setting": "[2]", "result": "competitive with glutamate"}, {"measurement": "glutathione level of kidney", "setting": "[3]; [7]", "result": "70 % of control"}, {"measurement": "depletion of glutathione in liver (in words)", "setting": "[3]; liver, i.p., 2 hours", "result": "did not cause significant depletion of glutathione"}, {"measurement": "depletion of glutathione in pancreas (in words)", "setting": "[3]; pancreas, i.p., 2 hours", "result": "did not cause significant depletion of glutathione"}]}, {"smiles": "CCCCS(=O)(=O)CC[C@H](N)C(=O)O", "note": "[L-buthionine sulfone]", "values": [{"measurement": "L-glutamylcysteine uptake from the tubule (in words)", "setting": "[4]", "result": "inhibition of L-glutamylcysteine uptake from the tubule"}]}, {"smiles": "CCCC[S@@](=N)(=O)CC[C@H](N)C(=O)O", "note": "[L-buthionine-R-sulfoximine]", "values": [{"measurement": "inhibition of gamma-glutamylcysteine synthetase (in words)", "setting": "[2]", "result": "weak and reversible inhibitors"}, {"measurement": "reversibility of inhibition", "setting": "[2]", "result": "reversible inhibitor"}, {"measurement": "Ki", "setting": "[2]; 37° C., pH 8.2", "result": 110, "unit": "µM"}, {"measurement": "binding mode", "setting": "[2]", "result": "competitive with glutamate"}, {"measurement": "depletion of glutathione in brain (in words)", "setting": "[3]; brain, i.p., 2 hours", "result": "no significant effect on glutathione levels"}, {"measurement": "effect on glutathione level in kidney (in words)", "setting": "[3]; kidney", "result": "only a small effect on glutathione level in kidney"}, {"measurement": "glutathione level of kidney", "setting": "[3]; [7]", "result": "87 % of control"}, {"measurement": "depletion of glutathione in liver (in words)", "setting": "[3]; liver, i.p., 2 hours", "result": "no significant effect on glutathione levels; also recorded: did not cause significant depletion of glutathione"}, {"measurement": "depletion of glutathione in pancreas (in words)", "setting": "[3]; pancreas, i.p., 2 hours", "result": "no significant effect on glutathione levels; also recorded: did not cause significant depletion of glutathione"}, {"measurement": "tissue content, brain", "setting": "[5]", "result": 0.17, "unit": "μmole/gm tissue"}, {"measurement": "uptake or retention by some tissues (in words)", "setting": "[5]; e.g., heart and liver", "result": "more effectively than L-buthionine-S-sulfoximine"}, {"measurement": "tissue content, heart", "setting": "[5]", "result": 0.49, "unit": "μmole/gm tissue"}, {"measurement": "tissue content, large intestine", "setting": "[5]", "result": 0.20, "unit": "μmole/gm tissue"}, {"measurement": "tissue content, liver", "setting": "[5]", "result": 0.16, "unit": "μmole/gm tissue"}, {"measurement": "tissue content, lung", "setting": "[5]", "result": 0.55, "unit": "μmole/gm tissue"}, {"measurement": "tissue content, skeletal muscle", "setting": "[5]", "result": 0.24, "unit": "μmole/gm tissue"}, {"measurement": "tissue content, small intestine", "setting": "[5]", "result": 0.39, "unit": "μmole/gm tissue"}, {"measurement": "tissue content, spleen", "setting": "[5]", "result": 0.59, "unit": "μmole/gm tissue"}, {"measurement": "tissue content, testes", "setting": "[5]", "result": 0.50, "unit": "μmole/gm tissue"}]}, {"smiles": "CCCC[S@](=N)(=O)CC[C@H](N)C(=O)O", "note": "[L-buthionine-S-sulfoximine]", "values": [{"measurement": "inhibition of gamma-glutamylcysteine synthetase (in words)", "setting": "[2]", "result": "strongly and irreversibly inhibits"}, {"measurement": "reversibility of inhibition", "setting": "[2]", "result": "irreversible inhibition"}, {"measurement": "time to complete inhibition", "setting": "[2]; 0.01 or 0.1 mM inhibitor, either concentration", "result": "less than 5 min"}, {"measurement": "reversal of inhibition by dilution or gel permeation chromatography", "setting": "[2]; buffers containing ATP and MgCl2", "result": "could not be reversed"}, {"measurement": "depletion of tissue glutathione levels in several tissues (in words)", "setting": "[3]; compared with L-buthionine-SR-sulfoximine at twice the dose", "result": "as effectively as L-buthionine-SR-sulfoximine given at twice the dose"}, {"measurement": "glutathione level of kidney", "setting": "[3]; [7]", "result": "27 % of control"}, {"measurement": "glutathione level of liver", "setting": "[3]; liver, i.p., 2 hours after injection, SR 0.4 mmole/kg, S 0.2 mmole/kg", "result": "41 % of control"}, {"measurement": "glutathione level of pancreas", "setting": "[3]; pancreas, i.p., 2 hours after injection, SR 0.4 mmole/kg, S 0.2 mmole/kg", "result": "about 42 % of control"}, {"measurement": "tissue content, brain", "setting": "[5]", "result": 0.11, "unit": "μmole/gm tissue"}, {"measurement": "tissue content, heart", "setting": "[5]", "result": 0.33, "unit": "μmole/gm tissue"}, {"measurement": "tissue content, large intestine", "setting": "[5]", "result": 0.25, "unit": "μmole/gm tissue"}, {"measurement": "tissue content, liver", "setting": "[5]", "result": 0.11, "unit": "μmole/gm tissue"}, {"measurement": "tissue content, lung", "setting": "[5]", "result": 0.53, "unit": "μmole/gm tissue"}, {"measurement": "tissue content, skeletal muscle", "setting": "[5]", "result": 0.18, "unit": "μmole/gm tissue"}, {"measurement": "tissue content, small intestine", "setting": "[5]", "result": 0.34, "unit": "μmole/gm tissue"}, {"measurement": "tissue content, spleen", "setting": "[5]", "result": 0.51, "unit": "μmole/gm tissue"}, {"measurement": "tissue content, testes", "setting": "[5]", "result": 0.45, "unit": "μmole/gm tissue"}]}, {"smiles": "C[S@](=N)(=O)CC[C@H](N)C(=O)O", "note": "[L-methionine-S-sulfoximine]", "values": [{"measurement": "inhibition of gamma-glutamylcysteine synthetase (in words)", "setting": "[6]", "result": "the only diastereomer of DL-methionine-SR-sulfoximine that inhibits gamma-glutamylcysteine synthetase"}]}, {"smiles": "N[C@@H](CCC(=O)O)C(=O)O", "note": "[glutamate, L-glutamate]", "values": [{"measurement": "Km", "setting": "[2]; read-out: Km for glutamate, without inhibitor, 37° C., pH 8.2", "result": "1700 ± 300", "unit": "µM"}]}]}
